Reference: patent publication US20180008587A1, “THIOHYDANTOIN ANDROGEN RECEPTOR ANTAGONISTS FOR THE TREATMENT OF CANCER” (Jaressen Pharmaceutica NV, priority 2016, published 2018)
Numbering of substitutions follows the chain as printed. Where two headings read alike, the source gives them in different places.

Experiments:
Format in all cases: cell-based
[1] = molecular target: T1, wild-type Androgen Receptor (AR-wt) (Homo sapiens, UniProt P10275); assay: LNCaP-AR-wt ANT reporter assay (ARE firefly luciferase, antagonist mode); conditions: for IC50: antagonist mode, 400 pM R-1881 challenge, −Log10(IC50 [Molar]), read-out: LNCaP-AR-wt ANT pIC50 (converted); for Emax: read-out: LNCaP-AR-wt ANT MAX % Inh
T1 construct: expressed in transfected cells; host or cells: LNCaP (LNCaP AR (cs))
T1 sequence (P10275 1-920): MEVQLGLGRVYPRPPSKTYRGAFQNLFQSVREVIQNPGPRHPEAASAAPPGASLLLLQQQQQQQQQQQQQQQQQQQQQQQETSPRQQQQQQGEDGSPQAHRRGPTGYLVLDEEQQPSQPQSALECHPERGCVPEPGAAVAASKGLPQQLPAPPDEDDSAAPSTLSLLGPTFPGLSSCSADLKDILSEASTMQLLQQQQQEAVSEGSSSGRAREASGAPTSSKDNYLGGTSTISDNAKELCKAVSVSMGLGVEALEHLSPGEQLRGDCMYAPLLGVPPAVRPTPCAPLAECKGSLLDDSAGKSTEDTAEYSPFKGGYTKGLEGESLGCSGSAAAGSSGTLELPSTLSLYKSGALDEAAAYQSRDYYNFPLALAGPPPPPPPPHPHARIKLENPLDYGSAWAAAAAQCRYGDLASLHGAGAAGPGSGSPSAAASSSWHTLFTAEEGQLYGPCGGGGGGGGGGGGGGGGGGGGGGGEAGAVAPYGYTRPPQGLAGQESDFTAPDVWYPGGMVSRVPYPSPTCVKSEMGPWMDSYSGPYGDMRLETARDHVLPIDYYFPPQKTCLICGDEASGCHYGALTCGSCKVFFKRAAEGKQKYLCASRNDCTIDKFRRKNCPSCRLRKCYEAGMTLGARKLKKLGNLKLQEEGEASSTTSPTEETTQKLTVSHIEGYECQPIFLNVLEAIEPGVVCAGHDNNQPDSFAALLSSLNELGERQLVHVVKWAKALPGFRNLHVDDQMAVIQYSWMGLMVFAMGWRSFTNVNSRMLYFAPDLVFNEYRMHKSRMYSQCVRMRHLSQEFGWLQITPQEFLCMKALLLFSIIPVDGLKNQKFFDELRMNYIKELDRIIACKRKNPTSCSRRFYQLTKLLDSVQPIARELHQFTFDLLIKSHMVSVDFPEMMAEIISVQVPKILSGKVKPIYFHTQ
Protocol: (§1) A stable pooled-population cell line was generated using puromycin (Life Technologies) selection at 1:10,000 v/v. The protocol below was used for both cell lines and for testing of the compounds of Formula (I) of the present invention.
(§2) LNCaP cells were grown to about 80% confluence, media removed and cells rinsed in Hank's balanced salt solution prior to separation from the plate with 0.05% Trypsin EDTA. Cells were lifted and trypsin negated in complete CSS (charcoal stripped serum) culture media. […] Agonist challenge was at 400 pM for WT assay and 600 pM for F876L assay. Plates containing cells and compounds herein were incubated for a further 20-24 hours at 37° C., 5% CO2 before addition of 40 μL/well of Steady-Glo Luciferase Assay System Reagent (Promega# E2520). After 1 h, plates were read for luminescence on a BMG Pherastar.
(§3) EC/IC50 calculations were achieved utilizing calculated RLU data and data fitting macros. Data were fit using least-squares methods to the following formula: […]

[2] = molecular target: T2, F876L mutant Androgen Receptor (AR-F876L) (Homo sapiens, UniProt P10275, F877L); assay: LNCaP-AR-F876L ANT reporter assay (ARE firefly luciferase, antagonist mode); conditions: for Emax: read-out: LNCaP-AR-F876L ANT MAX % Inh; for IC50: read-out: LNCaP-AR-F876L ANT pIC50 (converted)
T2 construct: expressed in transfected cells; host or cells: LNCaP (LNCaP F876L)
T2 sequence (P10275 1-920 F877L): T1 sequence (P10275 1-920) with F877L
Protocol: as §1, §2, §3

[3] = molecular target: T2, F876L mutant Androgen Receptor (AR-F876L); assay: LNCaP-AR-F876L AG reporter assay (ARE firefly luciferase, agonist mode); conditions: for Emax: read-out: LNCaP-AR-F876L AG MAX % Stim
Protocol: as §1, §2, §3

[4] = molecular target: T1, wild-type Androgen Receptor (AR-wt); assay: LNCaP-AR-wt AG reporter assay (ARE firefly luciferase, agonist mode); conditions: for Emax: read-out: LNCaP-AR-wt AG MAX % Stim
Protocol: as §1, §2, §3

[5] = maximum % inhibition of R1881 control response over tested concentration range
[6] = agonist mode, −Log10(EC50 [Molar]), read-out: LNCaP-AR-F876L AG pEC50 (converted)
[7] = maximum % stimulation (agonist response) over tested concentration range
[8] = agonist mode, −Log10(EC50 [Molar]), read-out: LNCaP-AR-wt AG pEC50 (converted)

SMILES | IC50 [1] [nM] | Emax [1, 5] [%] | Emax [2, 5] [%] | IC50 [2] [nM] | EC50 [3, 6] [nM] | Emax [3, 7] [%] | EC50 [4, 8] [nM] | Emax [4, 7] [%] | Emax [1] [%] | Emax [2] [%] | EC50 [3] [nM] | Emax [3] [%] | EC50 [4] [nM] | Emax [4] [%]
Cc1cc(N2C(=O)C(C)(C)N(c3ccc(OC4CCN(C)CC4)cc3)C2=S)cnc1C#N [Cpd 1, 5-[4,4-dimethyl-3-[4-[(1-methyl-4-piperidyl)oxy]phenyl]-5-oxo-2-thioxo-imidazolidin-1-yl]-3-methyl-pyridine-2-carbonitrile] | 871 | 100 | 101 | 513 | > 15100 | -0.6 | > 15100 | 0.5 |  |  |  |  |  | 
Cc1cc(N2C(=O)C3(CCC3)N(c3ccc(C(=O)NC4CCOCC4)c(F)c3)C2=S)cnc1C#N [Cpd 2, 4-[6-(6-cyano-5-methyl-3-pyridyl)-5-oxo-7-thioxo-6,8-diazaspiro[3.4]octan-8-yl]-2-fluoro-N-tetrahydropyran-4-yl-benzamide] | 2240 |  |  | 288 |  |  |  |  | 98.1 | 99.3 | > 15100 | -0.4 | > 15100 | 0.8
Cc1cc(N2C(=O)C3(CCC3)N(c3ccc(C(=O)NCC4CCOCC4)c(F)c3)C2=S)cnc1C#N [Cpd 3, 4-[6-(6-cyano-5-methyl-3-pyridyl)-5-oxo-7-thioxo-6,8-diazaspiro[3.4]octan-8-yl]-2-fluoro-N-(tetrahydropyran-4-ylmethyl)benzamide] | 1350 | 99.6 | 98.9 | 324 | > 15100 | -0.3 | > 15100 | 0.3 |  |  |  |  |  | 
N#Cc1ncc(N2C(=O)C3(CCC3)N(c3ccc4ccncc4c3)C2=S)cc1C(F)(F)F [Cpd 7, 5-[8-(7-isoquinolyl)-5-oxo-7-thioxo-6,8-diazaspiro[3.4]octan-6-yl]-3-(trifluoromethyl)pyridine-2-carbonitrile] | 417 |  |  | 234 |  |  |  |  | 101 | 100 | > 15100 | 0 | > 15100 | -0.2
N#Cc1ncc(N2C(=O)C3(CCC3)N(c3cccnc3)C2=S)cc1C(F)(F)F [Cpd 9, 5-[5-oxo-8-(3-pyridyl)-7-thioxo-6,8-diazaspiro[3.4]octan-6-yl]-3-(trifluoromethyl)pyridine-2-carbonitrile] | 871 |  |  | 692 |  |  |  |  | 99 | 100 | > 15100 | 0 | > 15100 | -0.2
Cc1cc(N2C(=O)C3(CCC3)N(c3ccc(OC4CCOCC4)cc3)C2=S)cnc1C#N [Cpd 87, 3-methyl-5-[5-oxo-8-(4-tetrahydropyran-4-yloxyphenyl)-7-thioxo-6,8-diazaspiro[3.4]octan-6-yl]pyridine-2-carbonitrile] |  |  |  | 288 |  |  |  |  |  | 99.7 | > 15100 | 0.9 | > 15100 | 1.1

Now from value to compound, other results behind:

IC50 [1] [nM] | Emax [1, 5] [%] | Emax [2, 5] [%] | IC50 [2] [nM] | EC50 [3, 6] [nM] | Emax [3, 7] [%] | EC50 [4, 8] [nM] | Emax [4, 7] [%] | SMILES | Emax [1] [%] | Emax [2] [%] | EC50 [3] [nM] | Emax [3] [%] | EC50 [4] [nM] | Emax [4] [%]
1100 | 100 | 100 | 269 | > 15100 | -0.4 | > 15100 | 0.2 | Cc1cc(N2C(=O)C3(CCC3)N(c3ccc(OC4CCN(C)CC4)cc3)C2=S)cnc1C#N [Cpd 4, 3-methyl-5-[8-[4-[(1-methyl-4-piperidyl)oxy]phenyl]-5-oxo-7-thioxo-6,8-diazaspiro[3.4]octan-6-yl]pyridine-2-carbonitrile] |  |  |  |  |  | 
977 | 101 | 98.3 | 417 | > 15100 | -0.1 | > 15100 | 0.7 | CNC(=O)c1ccc(N2C(=S)N(c3cnc(C#N)c(C)c3)C(=O)C23CCC3)cc1C [Cpd 5, 4-[6-(6-cyano-5-methyl-3-pyridyl)-5-oxo-7-thioxo-6,8-diazaspiro[3.4]octan-8-yl]-N,2-dimethyl-benzamide] |  |  |  |  |  | 
646 | 100 | 99.5 | 178 | > 15100 | 0 | > 15100 | 0.4 | Cc1cc(N2C(=O)C3(CCC3)N(c3ccc(OC4CCS(=O)(=O)CC4)cc3)C2=S)cnc1C#N [Cpd 6, 5-[8-[4-(1,1-dioxothian-4-yl)oxyphenyl]-5-oxo-7-thioxo-6,8-diazaspiro[3.4]octan-6-yl]-3-methyl-pyridine-2-carbonitrile] |  |  |  |  |  | 
724 | 99 | 98.4 | 490 | > 15100 | 0.1 | > 15100 | 0.6 | Cc1cc(N2C(=O)C3(CCC3)N(c3ccc(OCCN4CCN(C)CC4)cc3)C2=S)cnc1C#N [Cpd 10, 3-methyl-5-[8-[4-[2-(4-methylpiperazin-1-yl)ethoxy]phenyl]-5-oxo-7-thioxo-6,8-diazaspiro[3.4]octan-6-yl]pyridine-2-carbonitrile] |  |  |  |  |  | 
245 | 100 |  |  | > 15100 | 0 | > 15100 | 0.3 | N#Cc1ncc(N2C(=O)C3(CCC3)N(c3ccc(C(=O)NCCc4ccccc4)c(F)c3)C2=S)cc1C(F)(F)F [Cpd 42, 4-[6-[6-cyano-5-(trifluoromethyl)-3-pyridyl]-5-oxo-7-thioxo-6,8-diazaspiro[3.4]octan-8-yl]-2-fluoro-N-phenethyl-benzamide] |  |  |  |  |  | 
